Test results taken from patent publication US8227510B2, “Combine use of pterostilbene and quercetin for the production of cancer treatment medicaments” (Universitat de Valencia, priority 2004, dated 2012).

Experiments:
[1] = in vivo; design: species or system mice; settings: mouse
From the text: The mice (C57BL/6J, male, 6-8 weeks) were from Charles River Spain (Barcelona). The procedures and animal care were based on institutional standards and complied with national and international laws and policies (Directive 86/609, OJ L 358. 1 of the Council of the European Community, of 12 Dec. 1987) and the “Guide for the Care and Use of Laboratory Animals” of the National Institutes of Health (NIH, USA) (NIH Publication No. 85-23, 1985). All the animals were fed according to concentrated laboratory diets (Letica, Barcelona, Spain) allowing them free access to food and submitting them to a cycle of 12 hours of light/12 hours of darkness with ambient temperature of 22° C. The experiments were begun at 10.00 a.m. to minimize the effects of diurnal variations.
For the pharmacokinetic studies and for the daily treatment, the mice were administered i.v. (via the jugular vein, where a permanent catheter had previously been fixed by surgical methods; i.v. administration was carried out slowly for 1 minute), and orally (via stomach tube), 20 mg/kg of t-PTER (dissolved in ethanol 0.5 ml/kg of animal weight) or QUER (dissolved in dimethylsulfoxide:saline, 1:0.5 0.15 ml/kg of weight). In general, the compositions based on a combination of PTER and QUER can contain, as excipients, those stated previously or any others that are pharmaceutically acceptable. The presentation of said compositions can be, non-limitatively, in the form of solids such as tablets, capsules, pellets, pills, etc. and liquid presentations such as drops, syrups, injectables, etc. Moreover, the active principles (PTER and QUER) of the composition can be in their uncombined forms or in the form of pharmaceutically acceptable salts, including esters. The t-PTER was synthesized in our laboratory following standardized reactions of Wittig and Heck (www.orgsyn.org), whereas the QUER was obtained from Sigma Chemical Co. (San Luis, Mo., USA). The ^3H-t-PTER (2.2 Ci/mmol), labeled in the ortho and para positions of the benzene rings, was prepared in our laboratory according to a method similar to that used for the deuteration of phenols (18). ^14C-QUER (50 mCi/mmol), labeled in position 4 of the carbon ring, was obtained from the NCI Radiochemical Carcinogen Repository of Chemsyn Laboratories (Kansas City, Mo., USA). The radioactivity was measured using a Varisette 2700 TR analyzer from Packard. Blood was collected by means of the catheter in 1-ml syringes that contained heparin sodium (0.05 ml of a 5% solution in […]). The plasma and the erythrocytes were separated as described previously (19).
LC-MS/MS was carried out using a Quattro Micro triple quadrupole mass spectrometer (Micromass, Manchester, UK) equipped with an LC-10Advp pump, an SLC-10Avp control system and an SIL-10Advp autoinjector from Shimadzu. The samples were analyzed by reverse-phase high-performance liquid chromatography using a Prodigy ODS column (100×2 mm) from Phenomenex (Torrance, Calif., USA), with a particle size of 3 μm. In all cases, 40 μl was injected into the column. Column temperature was maintained at 25° C. The following gradient system was used, pumped through the column at 0.2 ml/minute (min/% A/% B/% C) (A, methanol; B, 10% acetonitrile and 90% ammonium formate 10 mM pH 3.75; C, ammonium formate 10 mM pH 3.75): 0/5/5/90, 10/5/5/90, 20/5/90/5, 30/100/0/0, 40/5/5/90. The negative ion tandem mass spectra obtained by electrospray were recorded with the electrospray capillary fixed at […] and at a temperature of the source block of 120° C. Nitrogen was used as nebulizer gas and drying gas, with flows of 300 and 30 l/h, respectively. Argon at 1.5×10^−3 mbar was used as the collision gas for collision-induced dissociation. A test was carried out based on LC-MS/MS with tracking of multiple reactions using the transitions m/z 255-240 for PTER and […] for QUER, which in both cases represent favorable fragmentation routes for these deprotonated molecules. […]

[2] = test system: B16M-F10 cells; test: Inhibition in vitro of the growth of B16M-F10 cells; format: cell-based
Method: B16M-F10 cells were cultured in Dulbecco's modified Eagle's medium (DMEM; Gibco Labs., Grand Island, N.Y., USA), pH 7.4, supplemented with 10% fetal serum (Gibco), HEPES 10 mM, NaHCO3 40 mM, 100 U/ml of penicillin and 100 μg/ml of streptomycin (20).
The B16M-F10 melanoma, highly aggressive, is a model that is widely used for investigating metastatic spread and tissue invasion (21), and for this reason was chosen for our studies. In the first group of experiments, we studied the effect in vitro of t-PTER+QUER on the growth of B16M-F10 cells. To reproduce the conditions in vivo after i.v. administration, we incubated B16M-F10 cells in the presence of t-PTER (40 μM) and/or QUER (20 μM) for a limited period (60 minutes) (this represents a value that approximates to the average of the concentrations of PTER and QUER measured in the plasma during the first hour after i.v. administration of 20 mg/kg of each polyphenol (FIG. 2). For comparison, we also used t-RESV (12 μM; selection of this concentration was based on a similar criterion, see the data cited in ref. 14). The polyphenols were added to the incubation medium every 24 hours and, as mentioned, they were only present for 60 minutes.
Also for comparison, we incubated B16M-F10 cells in the presence of t-PTER+QUER at concentrations representing an approximate average value of the total level of each polyphenol measured in the plasma in the first hour after oral administration (11 μM of PTER and 1 μM of QUER) (see Table 1). Both polyphenols, as free forms, were constantly present in the incubation medium.
FIG. 2. Inhibition in vitro of the growth of B16M-F10 cells by brief exposure to resveratrol (RESV), pterostilbene (PTER) and/or quercetin (QUER). All the points are mean values±SD corresponding to 5-6 independent experiments. *P<0.05, **P<0.01 compared with the control values.

[3] = t-PTER 40 μM, QUER 20 μM, t-RESV 12 μM, added every 24 hours, present for 60 minutes

## COc1cc(/C=C/c2ccc(O)cc2)cc(OC)c1 [PTER, pterostilbene]
[1]; male, C57BL/6J
  PTER measured in plasma or blood in the trans form: At least 99%
[1]; male, C57BL/6J, iv, 20 mg/kg
  half-life: ~77.9 min
  time in which plasma concentration decreases to ~1 μM: 480 min
[1]
  levels in whole blood compared with plasma: not significantly different
[2]; [3]
  inhibition of the growth of B16M-F10: 40%

## O=c1c(O)c(-c2ccc(O)c(O)c2)oc2cc(O)cc(O)c12 [QUER, quercetin]
[1]; male, C57BL/6J, iv, 20 mg/kg
  half-life: ~20.1 min
  time in which plasma concentration decreases to ~1 μM: 120 min
[1]
  levels in whole blood compared with plasma: not significantly different
[2]; t-PTER 11 μM and/or QUER 1 μM, constantly present in the medium
  effect on growth of B16M-F10 cells at concentrations found after oral administration: did not have a significant effect
[2]; [3]
  inhibition at 20 µM: 19%

## Oc1ccc(C=Cc2cc(O)cc(O)c2)cc1 [RESV, resveratrol, reference compound]
[1]
  half-life: ~10.2 min
[2]; [3]
  inhibition of the growth of B16M-F10: did not have a significant effect
[2]; t-RESV 12 μM added to t-PTER 40 μM + QUER 20 μM
  effect of t-RESV on the percentage inhibition of growth promoted by t-PTER+QUER: did not significantly affect
